Laboratory results as given in patent US9556165B2 (priority 2012, dated 2017).
Values after ≈ are worked out from the molar mass of the structure shown.

Tests used:
Type in all cases: cell-based
E. coli ATCC25922 = experiment: MIC determination, broth microdilution (CLSI); details: Escherichia coli, ATCC25922, strain 1
K. pneumoniae 60 = experiment: MIC determination, broth microdilution (CLSI); details: Klebsiella pneumoniae, 60, strain 2
E. cloacae 34654 = experiment: MIC determination, broth microdilution (CLSI); details: Enterobacter cloacae, 34654, strain 3
C. freundii K21/3034 = experiment: MIC determination, broth microdilution (CLSI); details: Citrobacter freundii, K21/3034, strain 4
M. morganii 126/3048 = experiment: MIC determination, broth microdilution (CLSI); details: Morganella morganii, 126/3048, strain 5
P. aeruginosa PAO1 = experiment: MIC determination, broth microdilution (CLSI); details: Pseudomonas aeruginosa, PAO1, strain 6
[1] = test system: P. aeruginosa 2297 (AmpC wt); experiment: MIC determination, broth microdilution (CLSI); details: Pseudomonas aeruginosa, strain 7
[2] = test system: P. aeruginosa 2297-con (AmpC derepressed); experiment: MIC determination, broth microdilution (CLSI); details: Pseudomonas aeruginosa, read-out: strain 8 MIC, strain 8
A. baumannii ATCC15308 = experiment: MIC determination, broth microdilution (CLSI); details: Acinetobacter baumannii, ATCC15308, strain 9
S. maltophilia ICB7569 = experiment: MIC determination, broth microdilution (CLSI); details: Stenotrophomonas maltophilia, ICB7569, strain 10
S. aureus 133 = experiment: MIC determination, broth microdilution (CLSI); details: Staphylococcus aureus, 133, strain 11; read-out: strain 11 MIC
M. catarrhalis ICB489 = experiment: MIC determination, broth microdilution (CLSI); details: Moraxella catarrhalis, ICB489, strain 12
H. influenzae ATCC 49247 = experiment: MIC determination, broth microdilution (CLSI); details: Haemophilus influenzae, ATCC49247, strain 13; read-out: strain 13 MIC
S. pneumoniae 113 = experiment: MIC determination, broth microdilution (CLSI); details: Streptococcus pneumoniae, 113, strain 14; read-out: strain 14 MIC
B. fragilis 6688 = experiment: MIC determination, broth microdilution (CLSI); details: Bacteroides fragilis, 6688, strain 15; read-out: strain 15 MIC
C. perfringens DSM756 = experiment: microbe, parasite or virus in culture; details: Clostridium perfringens, DSM756, read-out: strain 16 MIC, strain 16
E. coli J62 = experiment: MIC determination, broth microdilution (CLSI); details: Escherichia coli, J62, strain 17; read-out: strain 17 MIC
E. coli J62-TEM-3 = experiment: MIC determination, broth microdilution (CLSI); details: Escherichia coli, J62TEM3, read-out: strain 18 MIC, strain 18
strain 19 = experiment: MIC determination, broth microdilution (CLSI)
strain 20 = experiment: MIC determination, broth microdilution (CLSI)
strain 21 = experiment: MIC determination, broth microdilution (CLSI)

Row | SMILES | MIC (E. coli ATCC25922) [µg/mL] | MIC (K. pneumoniae 60) [µg/mL] | MIC (E. cloacae 34654) [µg/mL] | MIC (C. freundii K21/3034) [µg/mL] | MIC (M. morganii 126/3048) [µg/mL] | MIC (P. aeruginosa PAO1) [µg/mL] | MIC [1] [µg/mL] | MIC [2] [µg/mL] | MIC (A. baumannii ATCC15308) [µg/mL] | MIC (S. maltophilia ICB7569) [µg/mL] | MIC (S. aureus 133) [µg/mL] | MIC (M. catarrhalis ICB489) [µg/mL] | MIC (H. influenzae ATCC 49247) [µg/mL] | MIC (S. pneumoniae 113) [µg/mL] | MIC (B. fragilis 6688) [µg/mL] | MIC (C. perfringens DSM756) [µg/mL] | MIC (E. coli J62) [µg/mL] | MIC (E. coli J62-TEM-3) [µg/mL] | MIC (strain 19) [µg/mL] | MIC (strain 20) [µg/mL] | further results
1 | CC1(C)[C@H](NC(=O)/C(=N\OCCOc2ccc(C(=N)N[C@H]3CCNC3)cc2)c2csc(N)n2)C(=O)N1OS(=O)(=O)O [Example 39, (2Z)-2-(2-Amino-1,3-thiazol-4-yl)-N-[(3S)-2,2-dimethyl-4-oxo-1-(sulfooxy)azetidin-3-yl]-2-{[2-(4-{N-[(3S)-pyrrolidin-3-yl]carbamimidoyl}phenoxy)ethoxy]imino}ethanamide] | 0.25 (≈ 0.409 µM) | 0.5 (≈ 0.819 µM) | 0.5 (≈ 0.819 µM) | 0.25 (≈ 0.409 µM) | 0.5 (≈ 0.819 µM) | 2 (≈ 3.28 µM) | 4 (≈ 6.55 µM) | 2 (≈ 3.28 µM) | 0.5 (≈ 0.819 µM) | 16 (≈ 26.2 µM) | ≤ 0.063 | 0.25 (≈ 0.409 µM) | 0.25 (≈ 0.409 µM) | 2 (≈ 3.28 µM) | 16 (≈ 26.2 µM) | 8 (≈ 13.1 µM) | 0.25 (≈ 0.409 µM) | 4 (≈ 6.55 µM) | 0.125 (≈ 0.205 µM) | 0.25 (≈ 0.409 µM) | MIC (strain 21): 0.25 µg/mL (≈ 0.409 µM)
2 | CC1(C)[C@H](NC(=O)/C(=N\OCCOc2ccc(C(=N)NCCNC=N)cc2)c2csc(N)n2)C(=O)N1OS(=O)(=O)O [Example 38] | 0.125 (≈ 0.204 µM) | 0.25 (≈ 0.409 µM) | 0.25 (≈ 0.409 µM) | 0.125 (≈ 0.204 µM) | 0.5 (≈ 0.817 µM) | 4 (≈ 6.54 µM) | 8 (≈ 13.1 µM) | 4 (≈ 6.54 µM) | 0.25 (≈ 0.409 µM) | 32 (≈ 52.3 µM) | ≤ 0.063 | ≤ 0.063 | ≤ 0.063 | 2 (≈ 3.27 µM) | 4 (≈ 6.54 µM) | 2 (≈ 3.27 µM) | 0.25 (≈ 0.409 µM) | 4 (≈ 6.54 µM) | 0.125 (≈ 0.204 µM) | 0.25 (≈ 0.409 µM) | MIC (strain 21): 0.25 µg/mL (≈ 0.409 µM)
3 | CC1(C)[C@H](NC(=O)/C(=N\OCCSc2ccc(C(=N)N)cc2)c2csc(N)n2)C(=O)N1OS(=O)(=O)O [Example 7, (2Z)-2-(2-Amino-1,3-thiazol-4-yl)-2-({2-[(4-carbamimidoylphenyl)sulfanyl]ethoxy}imino)-N-[(3S)-2,2-dimethyl-4-oxo-1-(sulfooxy)azetidin-3-yl]ethanamide] | 0.5 (≈ 0.897 µM) | 1 (≈ 1.79 µM) | 1 (≈ 1.79 µM) | 0.5 (≈ 0.897 µM) | 0.5 (≈ 0.897 µM) | 8 (≈ 14.3 µM) | 16 (≈ 28.7 µM) | 8 (≈ 14.3 µM) | 2 (≈ 3.59 µM) | 4 (≈ 7.17 µM) | ≤ 0.063 | 0.25 (≈ 0.448 µM) | ≤ 0.063 | 2 (≈ 3.59 µM) | 1 (≈ 1.79 µM) | 2 (≈ 3.59 µM) | 1 (≈ 1.79 µM) | 8 (≈ 14.3 µM) | 0.5 (≈ 0.897 µM) | 1 (≈ 1.79 µM) | MIC (strain 21): 1 µg/mL (≈ 1.79 µM)
